# Assay results published in US7370953B2, “Inkjet recording ink” (FUJIFILM Corporation, priority 2003, dated 2008).
# Key:
# [1] = Absorption spectrum of dye; format: physicochemical; conditions: comparative dyes; ratio as printed
# From the text: To this end, the dye to be used in the invention preferably is a yellow dye having a λmax at a wavelength range of from 390 nm to 470 nm and a I(λmax+70 nm)/I(λmax) ratio of not greater than 0.2, more preferably not greater than 0.1 in which I(λmax) is the absorbance at λmax and I(λmax+70 nm) is the absorbance at λmax+70 nm. Ideally speaking, the lower limit of the ratio is 0. In actuality, however, the lower limit of the ratio is about 0.01.
# [2] = Oxidation potential of dye (vs SCE); format: physicochemical; conditions: comparative dyes; method not stated
# Protocol: The value of oxidation potential (Eox) can be easily measured by those skilled in the art.
# In some detail, for the measurement of oxidation potential, the test specimen is dissolved in a solvent such as dimethyl formamide and acetonitrile containing a supporting electrolyte such as sodium perchlorate and tetrapropylammonium perchlorate in a concentration of from […] to 1×10^−6 mol/l. The solution is then measured for oxidation potential with respect to SCE (saturated calomel electrode) by cyclic voltametry or DC polarography, etc. This value may deviate by a few tens of millivolts when affected by the difference in potential between liquids or the resistivity of sample solution, but the reproducibility of potential can be assured by putting a standard sample (e.g., hydroquinone) in the sample solution.
# In order to unequivocally define oxidation potential, in the present invention, the value (vs SCE) measured in dimethyl formamide containing 0.1 mol dm^−3 of tetrapropylammonium perchlorate as a supporting electrolyte (dye concentration: 0.001 mol dm^−3) is defined as oxidation potential of dye.
Compound,I(λmax)/I(λmax+70 nm) ratio [1],oxidation potential [2]
Direct Yellow 11 [Yellow dye (D)],greater than 0.4,≤ 1.0 V (vs SCE)
Cc1nn(-c2ccc(S(=O)(=O)[O-])cc2)c(O)c1/N=N/c1cccc(S(=O)(=O)Nc2cc(C(=O)[O-])cc(C(=O)[O-])c2)c1.[K+].[K+].[K+] [Yellow dye (C)],≤ 0.4,≤ 1.0 V (vs SCE)
